The results in this text go back to patent US11673927B2, “Antitumor agent targeting HGF-regulated tyrosine kinase substrate (HGS)” (TOKYO METROPOLITAN INSTITUTE OF MEDICAL SCIENCE, priority 2018, dated 2023).

T2 sequence (O14964 whole entry): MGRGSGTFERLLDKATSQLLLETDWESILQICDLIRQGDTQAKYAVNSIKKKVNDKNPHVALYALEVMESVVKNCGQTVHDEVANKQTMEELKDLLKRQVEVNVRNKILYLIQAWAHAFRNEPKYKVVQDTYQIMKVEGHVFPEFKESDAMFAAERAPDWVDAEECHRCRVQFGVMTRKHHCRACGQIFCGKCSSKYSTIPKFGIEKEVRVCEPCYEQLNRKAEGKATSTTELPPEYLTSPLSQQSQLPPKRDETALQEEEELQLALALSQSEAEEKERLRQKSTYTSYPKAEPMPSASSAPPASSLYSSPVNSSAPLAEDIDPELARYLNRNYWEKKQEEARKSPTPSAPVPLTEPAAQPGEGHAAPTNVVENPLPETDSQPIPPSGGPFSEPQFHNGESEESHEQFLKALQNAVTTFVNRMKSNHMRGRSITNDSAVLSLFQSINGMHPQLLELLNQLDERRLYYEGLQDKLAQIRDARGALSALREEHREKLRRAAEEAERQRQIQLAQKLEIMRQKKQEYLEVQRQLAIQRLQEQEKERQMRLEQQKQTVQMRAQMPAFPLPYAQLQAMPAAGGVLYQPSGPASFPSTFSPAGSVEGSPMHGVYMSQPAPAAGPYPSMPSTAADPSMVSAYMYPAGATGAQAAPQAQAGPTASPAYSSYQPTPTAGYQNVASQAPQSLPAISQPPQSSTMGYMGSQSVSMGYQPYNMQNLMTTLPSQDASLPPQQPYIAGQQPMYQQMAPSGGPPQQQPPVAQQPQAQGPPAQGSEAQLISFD

The first assay relates to mouse melanoma B16 cells. Description: Experimental lung metastasis inhibition test. Type of assay: in vivo, C57BL/6 mice. Particulars: B16 cells incubated with 40 nmol oligopeptide 2 hours, tail vein, colonies counted after 28 days, versus vehicle. The method, then: The metastasis inhibitory effect of OP12-462 on the experimental lung metastasizing ability of mouse melanoma B16 cells was examined.
First, a PBS solution (0.2 ml PBS) of mouse melanoma B16 cells (1E+5 cells) and the test oligopeptide (OP12-462) (40 nmol) was incubated at 37° C. for 2 hours. After incubation, this solution was administered to C57BL/6 mice (female) in the tail vein. The number of B16 cell metastatic tumor colonies in the mouse lung was counted 28 days after the tail vein administration of B16 cells. The ability of the oligopeptide OP12-462 to inhibit metastasis was quantified as the relative ratio of the number of the tumor colonies treated with the oligopeptide to the number of tumor colonies of B16 cells untreated with the oligopeptide.
As was in the above “1. (3)”, an experimental lung metastasis inhibition test was conducted on the oligopeptide OP12-462 and the OP12-462 alanine substituted peptides.
On to ERRAYYEGLQDK [OP12-462-A4], for which the “experimental lung metastasizing ability of mouse melanoma B16 cells (number of lung tumor colonies)” value (“experimental lung metastasizing ability” for short) is “remarkably inhibited”.

Turning to ERALYYEGLQDK [OP12-462-A3], the “experimental lung metastasizing ability” value was “remarkably inhibited”.

For the sequence ERRLYYEGAQDK [OP12-462-A9], the “experimental lung metastasizing ability” value is “remarkably inhibited”.

As to ERRLYYEGLQDK [OP12-462], the “experimental lung metastasizing ability” value is “remarkably inhibited”.

Another assay has as its target T1, GST-labeled STAM (Human) Recombinant Protein (Homo sapiens, UniProt Q92783).
T1 construct: purchased Abnova
T1 sequence (Q92783 1-540): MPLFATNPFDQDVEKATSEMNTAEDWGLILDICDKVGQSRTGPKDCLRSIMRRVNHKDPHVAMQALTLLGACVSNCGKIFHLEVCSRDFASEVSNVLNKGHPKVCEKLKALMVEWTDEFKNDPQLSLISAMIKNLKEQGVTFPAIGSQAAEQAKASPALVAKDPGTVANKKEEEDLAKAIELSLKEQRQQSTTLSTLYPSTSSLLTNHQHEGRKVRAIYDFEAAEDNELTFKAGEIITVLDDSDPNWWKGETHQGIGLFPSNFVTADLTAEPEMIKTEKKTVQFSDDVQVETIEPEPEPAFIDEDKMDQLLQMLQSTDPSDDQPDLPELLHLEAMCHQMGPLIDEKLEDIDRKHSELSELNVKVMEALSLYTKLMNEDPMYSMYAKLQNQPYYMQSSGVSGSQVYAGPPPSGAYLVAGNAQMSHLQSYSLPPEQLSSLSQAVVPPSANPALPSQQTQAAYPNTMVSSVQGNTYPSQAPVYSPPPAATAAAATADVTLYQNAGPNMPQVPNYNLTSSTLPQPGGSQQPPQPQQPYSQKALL
The experiment in a line: SPR interaction screening with immobilized GST-labeled STAM. Particulars: ProteOn XPR36, GST value as blank. The assay is classed as binding. As to the method: (§1) Specifically, Glutathione S-transferase (GST)-labeled HGS (Human) Recombinant Protein (Abnova), GST-labeled STAM (Human) Recombinant Protein (Abnova), or GST (Abnova) was immobilized on a ProteOn™ GLH sensor chip.
(§2) The interactions between the HGS/C constituent oligopeptides and these immobilized proteins were measured using the ProteOn™ XPR36 interaction array system (Bio-Rad). Using the GST value as a blank value, the dissociation rate constants (Kd) of the HGS/C-constituent oligopeptides with each of GST-labeled HGS and GST-labeled STAM were measured.
Regarding QIQLAQKLEI [OP10-507], the “interaction with STAM, dissociation rate constant (Kd) as index” value (shortened to “interaction with STAM … as index”) was “strong interaction”.

With VQRQLAIQRL [OP10-527], the “interaction with STAM … as index” value is on record as “strong interaction”.

For RRLYYEGLQD [OP10-463], the “interaction with STAM … as index” value is on record as “strong interaction”.

For the sequence ERRLYYEGLQDK [OP12-462], the “interaction with STAM … as index” value was “enhanced interaction”.

A further assay has as its system mouse melanoma B16 cells. Description: In vitro anchorage-independent growth inhibition test (ULAS plate), B16. Type of assay: cell-based. The note with it: ULAS plate, 0, 0.16, 0.4, 8 nmol, 7 days, FIG. 2A. An excerpt:
(§3) Cancer cells proliferate in an anchorage-independent manner, and normal cells proliferate in an anchorage-dependent manner.
(§4) In the present example, the Ultra-Low Attachment Surface Corning Costar 96 Well Cell Culture Plate 3474 (Corning) was used as an Ultra-Low Attachment Surface (ULAS) plate, and Tissue Culture Treated Corning Costar 96 Well Cell Culture Plate 3595 (Corning) was used as a normal plate.
(§5) As cells, mouse melanoma B16 cells and human colorectal cancer-derived COLO 205 cells were used, and Cell Counting Kit-8 (Dojindo Laboratories) was used to evaluate cell growth.
(§6) B16 cells or COLO 205 cells (2E+3 cells/0.2 ml Opti-MEM medium, 5% FBS/well) were seeded in each well of the ULAS plate and normal plate. The test oligopeptides (OP12-462, OP10-507 and OP10-527) (0, 0.16, 0.4, 8 nmol) were each added and cultured at 37° C.
(§7) After 7 days, 0.1 ml of Cell Counting Kit-8 solution (5-fold PBS diluted solution) was added, and the absorbance A450 nm was immediately measured and set as the TO blank value.
(§8) After incubating at 37° C. for 2 hours, the absorbance A450 nm was measured again and set as T2. The change=T2−T0 was defined as the anchorage-independent growth activity value or the anchorage-dependent growth activity value. The cell growth activity when adding a test oligopeptide was quantified as the relative ratio to the cell growth activity when no test oligopeptide was added.
As for QIQLAQKLEI [OP10-507], the anchorage-independent growth activity entry is “strongly inhibited”.

On to VQRQLAIQRL [OP10-527], for which the anchorage-independent growth activity result was “strongly inhibited”.

Regarding ERRLYYEGLQDK [OP12-462], the anchorage-independent growth activity entry is listed as “strongly inhibited”.

The test system of a further assay is mouse melanoma B16 cells. The experiment in a line: In vitro anchorage-dependent growth inhibition test (normal plate), B16. The assay is classed as cell-based. Particulars: normal plate, 0, 0.16, 0.4, 8 nmol, 7 days, FIG. 2A.
Excerpt: as §3, §4, §5, §6, §7, §8
In the case of QIQLAQKLEI [OP10-507], the anchorage-dependent growth activity entry is “did not inhibit at all or hardly inhibited”.

As for VQRQLAIQRL [OP10-527], the anchorage-dependent growth activity entry was “did not inhibit at all or hardly inhibited”.

As to ERRLYYEGLQDK [OP12-462], the anchorage-dependent growth activity result is listed as “did not inhibit at all or hardly inhibited”.

In another assay the test system is COLO 205 cells. Description: In vivo Xenograft test. Also on record: species or system BALB/c Slc-nu/nu nude mice. The note with it: COLO 205 xenograft, same method as Example 2 1.(2), FIGS. 6A to 6C. The method, then: COLO 205 cells (1E+6 cells/0.2 ml PBS) were inoculated subcutaneously into the back of BALB/c Slc-nu/nu nude mice (female) (n=5 or 6). The day after 10 days was set as Day 0, and PBS or the test oligopeptides (OP12-462, OP10-507 and OP10-527) (5 mg/kg body weight) was administered as a 0.2 ml PBS solution in the tail vein once daily for 10 days from Day 0 to Day 9. The size of the tumor formed was measured once daily from Day 0. The tumor volume was estimated by measuring the minor axis and major axis of the tumor (tumor volume=(semi-minor axis×semi-minor axis×semi-major axis×π)/6).
With the same method as in the above “[Example 2] 1. (2)”, the tumor growth inhibitory ability was evaluated for OP10-7, OP10-10 and OP10-11, which are typical examples of conventional HGS/C constituent oligopeptides.
Consider “ALSALREEHR [OP10-7, conventional HGS/C constituent oligopeptide]”, for which the “tumor growth inhibitory effect compared with OP12-462, OP10-507 and OP10-527” value is reported as “remarkably lower”.

Regarding “KLEIMRQKKQ [OP10-10, conventional HGS/C constituent oligopeptide]”, the “tumor growth inhibitory effect compared with OP12-462, OP10-507 and OP10-527” value was “remarkably lower”.

For the sequence “EYLEVQRQLA [OP10-11, conventional HGS/C constituent oligopeptide]”, the “tumor growth inhibitory effect compared with OP12-462, OP10-507 and OP10-527” value was “remarkably lower”.

Staying with this assay, now noted: nude mice, 5 mg/kg body weight, tail vein, once daily Day 0 to Day 9, versus PBS.
“ALSALREEHR [OP10-7, conventional HGS/C constituent oligopeptide]”: the “tumor growth of COLO 205 cells (tumor volume)” value (“tumor growth of COLO 205 cells” below) is listed as “a tumor growth inhibitory effect was observed”.

Regarding “KLEIMRQKKQ [OP10-10, conventional HGS/C constituent oligopeptide]”, the “tumor growth of COLO 205 cells” value was “a tumor growth inhibitory effect was observed”.

Consider QIQLAQKLEI [OP10-507], for which the “tumor growth of COLO 205 cells” value is “statistically significantly inhibited”.

On to VQRQLAIQRL [OP10-527], for which the “tumor growth of COLO 205 cells” value is “statistically significantly inhibited”.

Turning to ERRLYYEGLQDK [OP12-462], the “tumor growth of COLO 205 cells” value is “statistically significantly inhibited”.

Take “EYLEVQRQLA [OP10-11, conventional HGS/C constituent oligopeptide]”: the “tumor growth of COLO 205 cells” value was “a tumor growth inhibitory effect was observed”.

A further assay relates to human colorectal cancer-derived COLO 205 cells. Description: In vitro anchorage-dependent growth inhibition test (normal plate), COLO 205. Type of assay: cell-based. The note with it: normal plate, 0, 0.16, 0.4, 8 nmol, 7 days, FIG. 2B.
Excerpt: as §3, §4, §5, §6, §7, §8
Consider QIQLAQKLEI [OP10-507], for which the anchorage-dependent growth activity result is recorded as “did not inhibit at all or hardly inhibited”.

Turning to VQRQLAIQRL [OP10-527], the anchorage-dependent growth activity result is reported as “did not inhibit at all or hardly inhibited”.

Consider ERRLYYEGLQDK [OP12-462], for which the anchorage-dependent growth activity result is “did not inhibit at all or hardly inhibited”.

A further assay has as its target T2, GST-labeled HGS (Human) Recombinant Protein (Homo sapiens, UniProt O14964).
T2 construct: purchased Abnova
The experiment in a line: SPR interaction screening with immobilized GST-labeled HGS. The assay is classed as binding. Particulars: ProteOn XPR36, GST value as blank. As to the method:
as §1, §2
Regarding QIQLAQKLEI [OP10-507], the “interaction with HGS, dissociation rate constant (Kd) as index” value (“interaction with HGS … as index” below) was “strong interaction”.

Regarding VQRQLAIQRL [OP10-527], the “interaction with HGS … as index” value is on record as “strong interaction”.

With RRLYYEGLQD [OP10-463], the “interaction with HGS … as index” value is reported as “strong interaction”.

For the sequence ERRLYYEGLQDK [OP12-462], the “interaction with HGS … as index” value is reported as “enhanced interaction”.

The subject of a further assay is B16 cells or COLO 205 cells. Description: In vitro anchorage-independent growth inhibition test of OP12-462 alanine substituted peptides. The assay is classed as cell-based. Particulars: compared with the sample untreated with an oligopeptide (vehicle) or with OP12-462, FIG. 5.
Excerpt: as §4, §5, §6, §7, §8
As was in the above “1. […]
As for ERALYYEGLQDK [OP12-462-A3], the “in vitro anchorage-independent growth” value is listed as “equally to or more than OP12-462”.

A further assay relates to human colorectal cancer-derived COLO 205 cells. Description: In vitro anchorage-independent growth inhibition test (ULAS plate), COLO 205. The note with it: ULAS plate, 0, 0.16, 0.4, 8 nmol, 7 days, FIG. 2B. Type of assay: cell-based.
Excerpt: as §3, §4, §5, §6, §7, §8
As for QIQLAQKLEI [OP10-507], the anchorage-independent growth activity result is reported as “strongly inhibited”.

Regarding VQRQLAIQRL [OP10-527], the anchorage-independent growth activity entry was “strongly inhibited”.

On to ERRLYYEGLQDK [OP12-462], for which the anchorage-independent growth activity entry was “strongly inhibited”.
